# Experimental data reported in paper PMC9084888, “FGFR2–BRD4 Axis Regulates Transcriptional Networks of Histone 3 Modification and Synergy Between Its Inhibitors and PD-1/PD-L1 in a TNBC Mouse Model” (Frontiers in Immunology, 2022).
# Legend:
# Format in all cases: cell-based, mouse
# c-Myc = assay: Western blot of c-Myc in treated Fgfr2-S252W tumor cells; conditions: Figure 5F
# Method: (§1) Total proteins of tumors or cells were extracted using RIPA buffer with phosphatase and a protease inhibitor. Following a previously described protocol, immunoblotting was carried out using ChemiDocTM with corresponding antibodies. The antibodies used for IHC and Western blot are listed in Supplementary Table S2 .
# (§2) (C) Immunoblots with antibodies specific for the H3K9 acetylated lysine residues of histone H3 and pathway analysis of the activation of FGFR2 tumors or wild type (WT). […] (E) Assessment of the drug response of BGJ398, JQ1, or the combined treatment of Fgfr2-S252W tumor cells with the Alamar blue assay. […] (G) Inflammation analysis using real-time RT-PCR from Fgfr2-S252W or WT mouse. P-values by using GraphPad Prism 7 Software. **p < 0.01, ***p < 0.001, ****p < 0.0001.
# BRD4 = assay: Western blot of BRD4 in treated Fgfr2-S252W tumor cells; conditions: Figure 5F
# Method: as §1, §2
# Fgfr2-S252W tumor cells = assay: Alamar blue drug response assay of Fgfr2-S252W tumor cells
# Excerpt: All animal experiments were approved by the University of Macau Animal Ethics Committee (under the protocol UMARE-015-2019). The generation of Fgfr2-S252W mice was described in a previous work ([19]). Transgenic mice were continually checked to accelerate the growth of mammary tumors. Tumor samples were cut using sharp blades into small pieces of about 0.1–0.3 cm in diameter and processed three ways, as follows: 1) two larger pieces were fixed in 10% formalin and processed for histology and immunohistochemistry (IHC) staining with antibodies; 2) three pieces were immediately frozen in liquid nitrogen and used for subsequent DNA, RNA, and protein isolation; and 3) all the remaining pieces were placed in a freezing medium [10% DMSO/25% serum/65% Dulbecco’s modified Eagle’s medium (DMEM)], slowly frozen to −80°C, and transferred into liquid nitrogen a few days later. […] Primary FGFR2 tumor cells were derived from the Fgfr2-S252W mouse model using a standard procedure and maintained in F-medium.
# Figure 5 (A, B) RT-PCR analysis of the mRNA levels of Brd4 (A) and c-Myc (B) in tumors from the activation of Fgfr2-S252W transgenic mice. (C) Immunoblots with antibodies specific for the H3K9 acetylated lysine residues of histone H3 and pathway analysis of the activation of FGFR2 tumors or wild type (WT). […]
smiles,measurement,setting,value
CCN1CCN(c2ccc(Nc3cc(N(C)C(=O)Nc4c(Cl)c(OC)cc(OC)c4Cl)ncn3)cc2)CC1 [BGJ398],inhibition of c-Myc (Western blot),c-Myc,inhibit
same,inhibition of BRD4 (Western blot),BRD4,inhibit
Cc1sc2c(c1C)C(c1ccc(Cl)cc1)=N[C@@H](CC(=O)OC(C)(C)C)c1nnc(C)n1-2 [JQ1],inhibition of c-Myc (Western blot),c-Myc,inhibit
same,inhibition of BRD4 (Western blot),BRD4,inhibit
same,resistance of Fgfr2-S252W tumor cells,Fgfr2-S252W tumor cells,still showed resistance
same,drug response of Fgfr2-S252W cells,"Fgfr2-S252W tumor cells; cell culture conditions, single agent, compared to response to FGFR inhibitor BGJ398",not very sensitive
